Experiments:
[1] = Tasting of a sample of the purified compound (taste perceived, sweetness relative to sucrose); settings: for sweetness relative to sucrose: approximate
Text: The sweetness intensity perceived was weaker than the sweetness intensity perceived with mogroside V. However, the perception of licorice and lingering profile of isomogroside IVe was weaker than that of mogroside V (see table on following page).

[2] = Sensory profile scores (Sweet, Licorice, Lingering) compared with mogroside V
[3] = tasted at 250 ppm in a water base
[4] = tasted at a concentration of 250 ppm

| Structure (SMILES) | sweetness relative to sucrose [1, 3] | taste perceived [1, 4] | sensory profile compared with mogroside V ([2]; 250 ppm in a water base) | Licorice ([2]; Dosage 250 ppm) | Lingering ([2]; Dosage 250 ppm) | Sweet ([2]; Dosage 250 ppm) | sweetness relative to sucrose ([1]; tasted at 500 ppm in a water base) | taste perceived ([1]; tasted at a concentration of 500 ppm in a water base) | sensory profile compared with mogroside V ([2]; 500 ppm in a water base) | Licorice ([2]; Dosage 500 ppm) | Lingering ([2]; Dosage 500 ppm) | Sweet ([2]; Dosage 500 ppm) | sweetness intensity perceived compared with mogroside V ([2]; 250 ppm in a water base) |
| --- | --- | --- | --- | --- | --- | --- | --- | --- | --- | --- | --- | --- | --- |
| C[C@H](CC[C@@H](O[C@@H]1O[C@H](CO[C@@H]2O[C@H](CO[C@@H]3O[C@H](CO)[C@@H](O)[C@H](O)[C@H]3O)[C@@H](O)[C@H](O)[C@H]2O)[C@@H](O)[C@H](O)[C@H]1O[C@@H]1O[C@H](CO)[C@@H](O)[C@H](O)[C@H]1O)C(C)(C)O)[C@H]1CC[C@@]2(C)[C@@H]3CC=C4[C@@H](CC[C@H](O[C@@H]5O[C@H](CO[C@@H]6O[C@H](CO)[C@@H](O)[C@H](O)[C@H]6O)[C@@H](O)[C@H](O)[C@H]5O)C4(C)C)[C@]3(C)[C@H](O)C[C@]12C [Compound 13a, (1S,4R,9beta,11alpha,24R)-1-{[6-O-(beta-D-glucopyranosyl)-beta-D-glucopyranosyl]oxy}-11,25-dihydroxy-9,10,14-trimethyl-4,9-cyclo-9,10-secocholest-5-en-24-yl beta-D-glucopyranosyl-(1→2)-[beta-D-glucopyranosyl-(1→6)-beta-D-glucopyranosyl-(1→6)]-beta-D-glucopyranoside] | 100-150 times sweeter than sucrose | moderate sweet taste | similar | 4.4 | 4.2 | 4.6 | – | – | – | – | – | – | – |
| C[C@H](CC[C@@H](O[C@@H]1O[C@H](CO)[C@@H](O)[C@H](O)[C@H]1O[C@@H]1O[C@H](CO)[C@@H](O)[C@H](O)[C@H]1O)C(C)(C)O)[C@H]1CC[C@@]2(C)[C@@H]3CC=C4[C@@H](CC[C@H](O[C@@H]5O[C@H](CO[C@@H]6O[C@H](CO)[C@@H](O)[C@H](O)[C@H]6O)[C@@H](O)[C@H](O)[C@H]5O)C4(C)C)[C@]3(C)CC[C@]12C [Compound 15a, (1S,4S,9beta,24R)-1-{[6-O-(beta-D-glucopyranosyl)-beta-D-glucopyranosyl]oxy}-25-hydroxy-9,10,14-trimethyl-4,9-cyclo-9,10-secocholest-5-en-24-yl 2-O-beta-D-glucopyranosyl-beta-D-glucopyranoside] | – | – | – | – | – | – | 150-300 times sweeter than sucrose | strong sweet taste | similar | 6.8 | 6.3 | 7.0 | – |
| C[C@H](CC[C@@H](O[C@@H]1O[C@H](CO[C@@H]2O[C@H](CO)[C@@H](O)[C@H](O)[C@H]2O)[C@@H](O)[C@H](O)[C@H]1O[C@@H]1O[C@H](CO)[C@@H](O[C@@H]2O[C@H](CO)[C@@H](O)[C@H](O)[C@H]2O)[C@H](O)[C@H]1O)C(C)(C)O)[C@H]1CC[C@@]2(C)[C@@H]3CC=C4[C@@H](CC[C@H](O[C@@H]5O[C@H](CO[C@@H]6O[C@H](CO)[C@@H](O)[C@H](O)[C@H]6O)[C@@H](O)[C@H](O)[C@H]5O)C4(C)C)[C@]3(C)[C@H](O)C[C@]12C [Compound 12a, (1S,4R,9beta,11alpha,24R)-1-{[6-O-(beta-D-glucopyranosyl)-beta-D-glucopyranosyl]oxy}-11,25-dihydroxy-9,10,14-trimethyl-4,9-cyclo-9,10-secocholest-5-en-24-yl beta-D-glucopyranosyl-(1→6)-[beta-D-glucopyranosyl-(1→4)-beta-D-glucopyranosyl-(1→2)]-beta-D-glucopyranoside] | 50-100 times sweeter than sucrose | moderate sweet taste | – | 3.1 | 3.0 | 3.4 | – | – | – | – | – | – | weaker |
